# Patent US11542210B2, “Method of producing a monoammonium phosphate containing fertilizer solution” (Liquigro Holdings (Proprietary) Limited, priority 2016, dated 2023)
# System: Maize
# Assay: Crop application - vegetative growth (maize): spray application, damage to the plants
# Assay type: in vivo
# Description: When using MAP technical, it is only possible to spray a maximum of 1 kg P per ha before damage is inflicted on the plants.
compound,measurement,value
"N.O=P(O)(O)O [MAP technical, monoammonium phosphate (technical)]",maximum that can be sprayed before damage is inflicted on the plants,≤ 1 kg P per ha
